Source: publication PMC3578829, “A Small Molecule (Pluripotin) as a Tool for Studying Cancer Stem Cell Biology: Proof of Concept” (PLoS ONE, 2013)

Columns and labels:
[1] = target: T1, Abl1 (Homo sapiens, UniProt P00519); experiment: Miniaturized 33P-based kinase screening assay; assay type: biochemical; conditions: max 10 µM, 3-fold serial dilution, n = 2
T1 construct: purchased Reaction Biology Corporation (Malvern, PA), contract assay
Method: (§1) The RSK2 in vitro kinase inhibition assay utilized was a modification of protocols established by Nguyen et al.. Additional protocols that confirmed the results depicted in Figure 4 and evaluated kinase inhibitory activity in a random selection of protein kinases (Table 3) were conducted at Reaction Biology Corporation (Malvern, PA). This was a miniaturized ^33P-based screening assay.

[2] = target: T2, RSK1 (Homo sapiens, UniProt Q15418); experiment: Miniaturized 33P-based kinase screening assay; assay type: biochemical; conditions: max 10 µM, 3-fold serial dilution, n = 2
T2 construct: purchased Reaction Biology Corporation (Malvern, PA), contract assay
Method: as §1

[3] = target: RSK2 (Homo sapiens, UniProt P51812); experiment: Miniaturized 33P-based kinase screening assay; assay type: biochemical; conditions: max 10 µM, 3-fold serial dilution, n = 2
Method: as §1

[4] = target: T3, p70S6K (Homo sapiens, UniProt P23443); experiment: Miniaturized 33P-based kinase screening assay; assay type: biochemical; conditions: max 10 µM, 3-fold serial dilution, n = 2
T3 construct: purchased Reaction Biology Corporation (Malvern, PA), contract assay
Method: as §1

[5] = target: T4, RSK4 (Homo sapiens, UniProt Q9UK32); experiment: Miniaturized 33P-based kinase screening assay; assay type: biochemical; conditions: max 10 µM, 3-fold serial dilution, n = 2
T4 construct: purchased Reaction Biology Corporation (Malvern, PA), contract assay
Method: as §1

[6] = target: T5, PIM1 (Homo sapiens, UniProt P11309); experiment: Miniaturized 33P-based kinase screening assay; assay type: biochemical; conditions: max 10 µM, 3-fold serial dilution, n = 2
T5 construct: purchased Reaction Biology Corporation (Malvern, PA), contract assay
Method: as §1

[7] = target: T6, RSK3 (Homo sapiens, UniProt Q15349); experiment: Miniaturized 33P-based kinase screening assay; assay type: biochemical; conditions: max 10 µM, 3-fold serial dilution, n = 2
T6 construct: purchased Reaction Biology Corporation (Malvern, PA), contract assay
Method: as §1

[8] = target: T7, PLK2 (Homo sapiens, UniProt Q9NYY3); experiment: Miniaturized 33P-based kinase screening assay; assay type: biochemical; conditions: max 10 µM, 3-fold serial dilution, n = 2
T7 construct: purchased Reaction Biology Corporation (Malvern, PA), contract assay
Method: as §1

[9] = tested on: OCT4; experiment: Immunoblotting of OCT4 in remaining colon tumor lines; assay type: cell-based; conditions: 0.1 µM SC-1
Method: Standard protein electrophoretic techniques were followed using previously published protocols. For these studies, the colon lines were cultured for 5 days with and without treatments, harvested with trypsin (0.25% trypsin 0.5 mM EDTA, Invitrogen), counted and lysed with a whole cell lysis buffer (10 mM Tris, 1.0 mM EDTA, 50 mM NaCl, 0.5% deoxycholate, 0.5% NP-40, 0.5% SDS, 1.0 mM PMSF, and aprotonin and a cocktail of phosphatase and protease inhibitors). The whole cell lysate was heated to 100°C for 10 min and then fractionated (1000 g, 10 min, 4°C). Protein concentrations were measured with the Pierce BCA Protein Assay. Twenty to 40 µg of protein lysate per lane were loaded onto 10% SDS polyacrylamide gels (Ready-Gels, Biorad) with Laemmli buffer. For immunoblotting, the primary antibodies were diluted in Tween/Tris wash buffer (0.1 mM Tris-HCl pH 7.5, 2.5% Tween-20, 150 mM NaCl) and 5% BSA or nonfat dry milk and incubated overnight at 4°C. Visualization of specific bands was accomplished with an alkaline phosphatase-labeled secondary anti-immunoglobulin antibody and the ECF Chemifluorescent reagent (GE Amersham). Pixel intensity of the imaged bands was measured using STORM (GE Amersham) and Image Quant Software. Normalization for loading was accomplished by reprobing with an anti-actin antibody, quantification of pixel intensity and data normalization.

T1 sequence (P00519 whole entry): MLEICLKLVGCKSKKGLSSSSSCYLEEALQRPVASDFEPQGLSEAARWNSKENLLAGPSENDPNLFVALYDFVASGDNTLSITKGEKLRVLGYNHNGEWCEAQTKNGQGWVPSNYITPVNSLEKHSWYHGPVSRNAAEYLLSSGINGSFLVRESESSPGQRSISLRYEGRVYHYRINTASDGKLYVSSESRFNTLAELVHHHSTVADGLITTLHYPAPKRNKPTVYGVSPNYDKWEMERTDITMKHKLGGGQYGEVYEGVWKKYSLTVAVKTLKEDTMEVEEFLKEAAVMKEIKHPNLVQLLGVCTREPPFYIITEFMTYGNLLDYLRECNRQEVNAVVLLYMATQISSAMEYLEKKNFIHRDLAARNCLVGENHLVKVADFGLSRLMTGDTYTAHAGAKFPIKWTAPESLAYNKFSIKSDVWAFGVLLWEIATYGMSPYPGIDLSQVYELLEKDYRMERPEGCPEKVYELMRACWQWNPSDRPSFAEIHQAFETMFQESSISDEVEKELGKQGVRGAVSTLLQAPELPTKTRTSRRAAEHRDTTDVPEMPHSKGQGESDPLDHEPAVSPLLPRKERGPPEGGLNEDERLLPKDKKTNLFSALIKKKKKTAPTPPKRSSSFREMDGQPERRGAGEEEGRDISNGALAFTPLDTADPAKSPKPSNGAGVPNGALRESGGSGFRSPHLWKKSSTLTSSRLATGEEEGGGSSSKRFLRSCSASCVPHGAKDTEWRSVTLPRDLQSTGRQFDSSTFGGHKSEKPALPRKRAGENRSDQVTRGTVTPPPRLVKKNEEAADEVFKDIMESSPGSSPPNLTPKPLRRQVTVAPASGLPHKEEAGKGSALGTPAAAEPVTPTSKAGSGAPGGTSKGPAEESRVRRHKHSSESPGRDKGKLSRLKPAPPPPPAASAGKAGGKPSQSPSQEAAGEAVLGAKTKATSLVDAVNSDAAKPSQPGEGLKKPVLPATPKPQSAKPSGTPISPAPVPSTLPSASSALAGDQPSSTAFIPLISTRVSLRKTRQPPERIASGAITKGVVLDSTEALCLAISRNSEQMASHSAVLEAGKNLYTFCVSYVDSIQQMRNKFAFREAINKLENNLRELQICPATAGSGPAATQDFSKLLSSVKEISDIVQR
T7 sequence (Q9NYY3 whole entry): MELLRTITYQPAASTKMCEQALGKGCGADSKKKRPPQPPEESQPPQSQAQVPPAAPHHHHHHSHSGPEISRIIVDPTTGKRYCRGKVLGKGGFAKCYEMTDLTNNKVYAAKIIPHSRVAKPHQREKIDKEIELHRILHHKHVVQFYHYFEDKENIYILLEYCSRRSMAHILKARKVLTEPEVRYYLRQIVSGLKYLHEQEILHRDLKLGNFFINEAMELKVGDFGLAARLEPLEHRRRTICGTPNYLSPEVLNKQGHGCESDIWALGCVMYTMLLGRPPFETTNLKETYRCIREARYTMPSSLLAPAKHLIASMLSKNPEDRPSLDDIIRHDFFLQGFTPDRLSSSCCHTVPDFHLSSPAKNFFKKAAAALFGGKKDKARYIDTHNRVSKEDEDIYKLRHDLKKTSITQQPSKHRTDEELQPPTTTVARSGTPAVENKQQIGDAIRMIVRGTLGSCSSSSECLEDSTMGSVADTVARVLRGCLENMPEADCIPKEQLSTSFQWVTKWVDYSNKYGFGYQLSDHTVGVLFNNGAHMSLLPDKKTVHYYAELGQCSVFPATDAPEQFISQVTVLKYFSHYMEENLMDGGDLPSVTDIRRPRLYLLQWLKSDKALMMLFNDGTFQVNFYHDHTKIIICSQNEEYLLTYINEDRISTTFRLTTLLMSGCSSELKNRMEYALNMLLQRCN
T5 sequence (P11309 whole entry): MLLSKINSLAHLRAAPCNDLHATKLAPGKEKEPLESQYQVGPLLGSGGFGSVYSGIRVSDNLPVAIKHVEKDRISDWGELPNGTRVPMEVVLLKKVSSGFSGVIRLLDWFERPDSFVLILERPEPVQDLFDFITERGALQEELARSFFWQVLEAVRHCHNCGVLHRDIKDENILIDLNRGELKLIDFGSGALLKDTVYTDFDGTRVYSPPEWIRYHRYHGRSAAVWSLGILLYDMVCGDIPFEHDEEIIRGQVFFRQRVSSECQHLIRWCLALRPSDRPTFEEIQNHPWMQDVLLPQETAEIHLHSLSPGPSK
RSK2, sequence (P51812 whole entry, species assumed): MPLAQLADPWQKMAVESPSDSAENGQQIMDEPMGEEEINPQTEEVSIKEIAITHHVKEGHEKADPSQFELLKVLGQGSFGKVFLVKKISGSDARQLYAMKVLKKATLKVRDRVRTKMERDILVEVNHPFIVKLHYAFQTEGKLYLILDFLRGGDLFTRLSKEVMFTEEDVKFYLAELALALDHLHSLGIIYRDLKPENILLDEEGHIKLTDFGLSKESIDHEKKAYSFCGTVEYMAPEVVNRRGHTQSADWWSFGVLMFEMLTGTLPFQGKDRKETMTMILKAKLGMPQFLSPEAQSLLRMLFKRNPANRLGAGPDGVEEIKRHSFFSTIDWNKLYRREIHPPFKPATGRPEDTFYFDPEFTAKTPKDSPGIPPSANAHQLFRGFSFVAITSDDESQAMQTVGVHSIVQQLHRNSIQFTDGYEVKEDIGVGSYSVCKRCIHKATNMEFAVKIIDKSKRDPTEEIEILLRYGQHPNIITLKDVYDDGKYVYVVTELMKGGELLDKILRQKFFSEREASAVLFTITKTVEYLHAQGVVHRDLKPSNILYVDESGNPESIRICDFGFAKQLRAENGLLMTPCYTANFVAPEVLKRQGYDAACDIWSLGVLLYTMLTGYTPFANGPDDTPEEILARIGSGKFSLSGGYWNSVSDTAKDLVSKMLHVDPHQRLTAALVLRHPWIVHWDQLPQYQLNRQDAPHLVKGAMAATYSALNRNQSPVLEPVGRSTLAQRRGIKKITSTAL
T6 sequence (Q15349 whole entry): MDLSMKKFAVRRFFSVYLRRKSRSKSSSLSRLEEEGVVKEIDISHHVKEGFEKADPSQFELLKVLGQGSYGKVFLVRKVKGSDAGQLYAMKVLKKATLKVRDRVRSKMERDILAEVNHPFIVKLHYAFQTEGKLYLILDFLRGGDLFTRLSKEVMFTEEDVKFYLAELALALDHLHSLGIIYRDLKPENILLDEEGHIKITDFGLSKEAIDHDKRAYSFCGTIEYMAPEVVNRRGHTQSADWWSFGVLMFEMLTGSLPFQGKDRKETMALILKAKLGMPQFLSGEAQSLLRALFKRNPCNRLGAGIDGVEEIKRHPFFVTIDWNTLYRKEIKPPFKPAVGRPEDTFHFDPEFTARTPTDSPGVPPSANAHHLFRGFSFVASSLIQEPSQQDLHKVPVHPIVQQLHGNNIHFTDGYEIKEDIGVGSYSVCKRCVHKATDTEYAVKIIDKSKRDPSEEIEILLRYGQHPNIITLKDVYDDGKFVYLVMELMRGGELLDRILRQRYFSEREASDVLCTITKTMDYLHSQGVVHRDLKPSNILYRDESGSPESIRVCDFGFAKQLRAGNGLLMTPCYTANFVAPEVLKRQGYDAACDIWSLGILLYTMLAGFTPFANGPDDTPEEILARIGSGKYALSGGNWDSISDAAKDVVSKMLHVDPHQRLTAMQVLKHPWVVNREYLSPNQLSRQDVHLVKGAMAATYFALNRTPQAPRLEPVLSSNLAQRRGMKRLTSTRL
T4 sequence (Q9UK32 whole entry): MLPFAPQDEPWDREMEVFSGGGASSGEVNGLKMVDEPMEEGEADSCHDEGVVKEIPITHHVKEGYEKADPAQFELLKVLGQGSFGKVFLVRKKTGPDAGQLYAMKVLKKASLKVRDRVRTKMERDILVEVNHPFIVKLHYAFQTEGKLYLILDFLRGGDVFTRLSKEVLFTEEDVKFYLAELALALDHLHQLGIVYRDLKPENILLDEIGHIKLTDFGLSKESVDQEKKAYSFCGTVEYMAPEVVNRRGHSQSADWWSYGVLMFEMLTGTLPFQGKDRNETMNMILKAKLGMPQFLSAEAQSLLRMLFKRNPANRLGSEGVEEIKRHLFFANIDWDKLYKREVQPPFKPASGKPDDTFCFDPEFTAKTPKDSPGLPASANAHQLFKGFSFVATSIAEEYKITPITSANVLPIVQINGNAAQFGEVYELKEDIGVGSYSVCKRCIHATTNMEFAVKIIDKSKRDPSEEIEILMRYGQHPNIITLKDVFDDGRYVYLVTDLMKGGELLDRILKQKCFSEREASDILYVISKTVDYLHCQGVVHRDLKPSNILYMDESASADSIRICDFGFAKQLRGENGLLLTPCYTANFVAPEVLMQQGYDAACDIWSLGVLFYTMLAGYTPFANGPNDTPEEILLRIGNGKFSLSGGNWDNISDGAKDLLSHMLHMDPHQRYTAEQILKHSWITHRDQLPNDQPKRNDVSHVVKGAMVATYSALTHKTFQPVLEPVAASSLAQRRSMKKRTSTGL
T3 sequence (P23443 whole entry): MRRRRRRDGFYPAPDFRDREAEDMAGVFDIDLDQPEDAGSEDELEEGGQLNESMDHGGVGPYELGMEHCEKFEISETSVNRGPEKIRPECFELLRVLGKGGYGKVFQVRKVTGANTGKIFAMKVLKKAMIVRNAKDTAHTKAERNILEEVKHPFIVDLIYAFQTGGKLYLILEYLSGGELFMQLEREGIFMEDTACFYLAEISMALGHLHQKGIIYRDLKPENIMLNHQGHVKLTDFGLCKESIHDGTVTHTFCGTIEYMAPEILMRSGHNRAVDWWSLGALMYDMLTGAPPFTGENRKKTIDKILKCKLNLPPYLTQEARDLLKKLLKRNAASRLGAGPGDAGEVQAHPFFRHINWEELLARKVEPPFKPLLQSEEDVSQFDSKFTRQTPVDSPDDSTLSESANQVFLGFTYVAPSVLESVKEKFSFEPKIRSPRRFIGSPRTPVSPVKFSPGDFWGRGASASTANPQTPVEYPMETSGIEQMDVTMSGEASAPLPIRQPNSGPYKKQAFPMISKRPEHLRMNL

Cc1cc(Nc2ncc3c(n2)N(C)C(=O)N(c2cc(NC(=O)c4cccc(C(F)(F)F)c4)ccc2C)C3)n(C)n1 [SC-1]
IC50 [1]: 5 nM | IC50 [2]: 500 nM | IC50 [3]: 2500 nM | IC50 [4]: 1400 nM | IC50 [5]: 10000 nM | IC50 [6]: ≥ 10000 nM | IC50 [7]: 3300 nM | IC50 [8]: 2200 nM | OCT4 protein expression [9]: unchanged or decreased
